One assay addresses T1, OTUD3 (Homo sapiens, UniProt Q5T2D3).
T1 construct: OTUD3 FL (1-398) GST, cleaved Q5T2D3; GST (cleaved yes); purchased Ubiquigent DUBscan Kit 67-0006-001
T1 sequence (Q5T2D3 1-398): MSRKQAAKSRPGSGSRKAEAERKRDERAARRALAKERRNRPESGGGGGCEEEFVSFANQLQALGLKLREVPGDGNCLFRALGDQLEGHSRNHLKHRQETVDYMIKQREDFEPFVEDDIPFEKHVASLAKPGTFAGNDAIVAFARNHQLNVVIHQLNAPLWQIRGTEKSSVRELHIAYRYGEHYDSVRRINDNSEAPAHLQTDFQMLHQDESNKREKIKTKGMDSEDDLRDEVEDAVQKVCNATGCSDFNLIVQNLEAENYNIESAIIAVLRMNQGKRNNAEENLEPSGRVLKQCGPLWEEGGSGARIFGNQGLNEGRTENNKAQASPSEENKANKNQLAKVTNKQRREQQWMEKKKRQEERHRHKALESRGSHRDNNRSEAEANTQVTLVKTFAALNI
Put plainly: In vitro DUB selectivity panel, ubiquitin substrate cleavage assay. The class given is biochemical. As to the method:
(§1) After having determined the (1S,2S) configuration as the preferred stereoisomer, we turned our attention to the aromatic ring substituents to further improve the compound potency. Applying the same chemo-enzymatic strategy described above, a panel of aryl substituted trans (1S,2S) cyclopropane compounds 7–10 were generated having a methyl (7–9) or fluorine (10) substituent at different positions on the aromatic ring. The compounds were tested for their OTUB2 inhibitory potency using the assay as described above (Table 1, Figure S1A). […] Since these compounds are all covalent, irreversible inhibitors,[15] the IC50 depends on the incubation time. To get a better estimate of their respective inhibitory capacity, independent of incubation time, we determined the kinact/KI values of compounds 5–10 by pre-mixing the compounds with the substrate before adding OTUB2. […] The in vitro selectivity of LN5P45 for OTUB2 was assessed using a panel containing six DUBs from the OTU family, including its closest family members OTUB1, OTUD1, OTUD2, OTUD3, OTUD6B, and Cezanne, and two DUBs from outside this family, UCHL1 and USP16 (Figure S2, Table S1).
(§2) The assays were performed in “nonbinding surface flat bottom low flange” black 384-well plates (Corning 3820) at room temperature in a buffer containing 50 mM Tris·HCl, 100 mM NaCl, pH 7.6, 2.0 mM cysteine, 1 mg/mL 3-[(3-cholamidopropyl)-dimethylammonio]propanesulfonic acid (CHAPS), and 0.5 mg/mL γ-globulins from bovine blood (BGG). All dispensing steps involving buffered solutions were performed on a Biotek MultiFlowFX dispenser. […] The compounds were dissolved in 10 mM and 1 mM DMSO stock solutions, and appropriate volumes were transferred to the empty plates using a Labcyte Echo acoustic dispenser to obtain a 12-point serial dilution. […] A 3 μL portion of the substrate (UbRhoMP, or K48-linked diUb FRET pair[35] for OTUB1) was added (final concentration 500 nM), and the increase in fluorescence over time was recorded using a BMG Labtech PHERAstar plate reader (excitation 487 nm, emission 535 nm).

A further assay concerns the target T2, UCHL1 (Homo sapiens, UniProt P09936).
T2 construct: UCHL1 FL (1-223); made in house
T2 sequence (P09936 1-223): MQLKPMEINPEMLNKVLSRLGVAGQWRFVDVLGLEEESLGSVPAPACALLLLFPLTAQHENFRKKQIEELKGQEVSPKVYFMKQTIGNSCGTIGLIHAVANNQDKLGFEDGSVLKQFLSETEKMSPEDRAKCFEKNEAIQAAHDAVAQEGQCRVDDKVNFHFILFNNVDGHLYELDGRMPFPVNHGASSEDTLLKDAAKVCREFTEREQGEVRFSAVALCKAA
The description is as above. The class given is biochemical. To be noted: marginal inhibition. The protocol: as §1, §2

The next assay has as its target T3, USP16 (Homo sapiens, UniProt Q9Y5T5).
T3 construct: USP16 FL (22-823); His-tag (N); made in house
Described as above. The class given is biochemical. The settings on record: marginal inhibition. The protocol:
as §1, §2

Assay [1] has as its system OTUB1, OTUD1, OTUD2, OTUD3, OTUD6B, Cezanne, UCHL1 and USP16. Put plainly: In vitro DUB selectivity panel, ubiquitin substrate cleavage assay (whole panel). The class given is biochemical, human. The settings on record: at concentrations up to 150 μM. As to the method:
as §1, with “S1). […]” for “S1).”

Assay [2] has as its system reactive cysteine sites in HeLa cells expressing GFP or GFP-OTUB2. Kind of assay: SLC-ABPP profiling of LN5P45-reactive cysteines with DBIA probe. The class given is cell-based, Homo sapiens. To be noted: 10 μM for 4 h, 10,670 cysteine peptides detected. The protocol: Reduced disulfide bonds were alkylated using 20 mM iodoacetamide for 30 min in the dark at RT.

Bounds are passed on as bounds.

T3 sequence (Q9Y5T5 22-823): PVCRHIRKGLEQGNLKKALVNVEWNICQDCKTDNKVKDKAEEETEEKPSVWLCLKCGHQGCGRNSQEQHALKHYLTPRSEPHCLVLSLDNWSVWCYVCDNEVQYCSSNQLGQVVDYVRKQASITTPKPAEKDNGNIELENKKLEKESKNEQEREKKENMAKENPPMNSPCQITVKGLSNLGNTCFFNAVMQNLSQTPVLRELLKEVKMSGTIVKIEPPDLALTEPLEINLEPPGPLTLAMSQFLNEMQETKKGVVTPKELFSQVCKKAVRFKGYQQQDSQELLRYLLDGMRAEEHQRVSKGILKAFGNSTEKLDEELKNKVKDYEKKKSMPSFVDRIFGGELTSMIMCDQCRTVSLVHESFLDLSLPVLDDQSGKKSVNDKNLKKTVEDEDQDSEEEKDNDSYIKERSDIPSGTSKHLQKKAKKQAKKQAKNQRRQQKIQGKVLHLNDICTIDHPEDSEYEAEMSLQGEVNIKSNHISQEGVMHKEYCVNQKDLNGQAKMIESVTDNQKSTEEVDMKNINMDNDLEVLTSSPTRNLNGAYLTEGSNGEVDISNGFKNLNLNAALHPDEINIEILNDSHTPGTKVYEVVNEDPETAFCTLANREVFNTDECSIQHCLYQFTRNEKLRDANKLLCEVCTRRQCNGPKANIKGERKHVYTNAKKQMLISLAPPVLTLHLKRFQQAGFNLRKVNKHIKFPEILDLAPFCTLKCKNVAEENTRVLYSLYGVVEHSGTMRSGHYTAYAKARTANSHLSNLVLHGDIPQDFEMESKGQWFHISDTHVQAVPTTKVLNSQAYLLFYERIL

A word on the IC50: it is the concentration that inhibits the measured activity by half. Higher therefore signals lower potency. `Cc1cccc([C@H]2C[C@@H]2C(=O)NNC(=O)CCl)c1` [Compound 8]: the IC50 against OTUD3 is 56 µM; on UCHL1, above 100 µM; at USP16, above 100 µM. Besides, the “Inhibition of most DUBs of the panel” value in assay [1] was “not inhibited”. The “Number of proteins not involved in ubiquitination with inhibited DBIA probe binding” value in assay [2] is on record as “seven”.
